Experimental data published in patent US20250320206A1, “STAT6 DEGRADERS” (Gilead Sciences, Inc., priority 2024, published 2025).

Key:
STAT6 = biological target: T1, STAT6 (Homo sapiens, UniProt P42226); experiment: Stat6 Degrader Assay (HiBiT based, HeLa LgBiT clone 4.14); type: cell-based; settings: HeLa LgBiT clone 4.14 HiBiT-STAT6, 4-24 h incubation; values given for compounds with >80% Emax; geometric mean; read-out: STAT6 degradation DC50
T1 construct: These cells express endogenous STAT6; host or cells: HeLa LgBiT clone 4.14
T1 sequence (P42226 1-847): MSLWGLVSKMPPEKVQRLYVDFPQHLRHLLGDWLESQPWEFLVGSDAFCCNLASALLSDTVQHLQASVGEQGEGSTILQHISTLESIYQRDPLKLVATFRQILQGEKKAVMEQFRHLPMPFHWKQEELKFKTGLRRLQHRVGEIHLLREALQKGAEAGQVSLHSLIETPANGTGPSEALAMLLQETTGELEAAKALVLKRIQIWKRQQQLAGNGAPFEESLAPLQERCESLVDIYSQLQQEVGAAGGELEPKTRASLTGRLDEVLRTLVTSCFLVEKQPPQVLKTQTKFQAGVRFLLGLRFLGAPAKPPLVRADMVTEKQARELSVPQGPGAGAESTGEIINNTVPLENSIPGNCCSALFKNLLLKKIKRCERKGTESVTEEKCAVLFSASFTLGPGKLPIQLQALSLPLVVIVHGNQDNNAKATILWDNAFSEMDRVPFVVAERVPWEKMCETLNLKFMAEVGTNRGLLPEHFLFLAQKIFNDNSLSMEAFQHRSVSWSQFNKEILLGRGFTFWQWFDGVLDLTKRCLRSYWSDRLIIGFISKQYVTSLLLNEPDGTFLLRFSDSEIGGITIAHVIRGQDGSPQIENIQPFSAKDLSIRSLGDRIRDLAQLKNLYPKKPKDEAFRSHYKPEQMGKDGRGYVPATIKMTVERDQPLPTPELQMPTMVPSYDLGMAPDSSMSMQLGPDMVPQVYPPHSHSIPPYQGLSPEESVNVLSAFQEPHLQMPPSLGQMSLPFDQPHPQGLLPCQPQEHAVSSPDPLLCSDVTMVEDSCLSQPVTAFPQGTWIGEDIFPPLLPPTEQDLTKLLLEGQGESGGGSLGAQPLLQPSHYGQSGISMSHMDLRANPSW
Summary of the method: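 HeLa LgBiT clone 4.14 cells with CRISPR HiBiT-tagged endogenous STAT6, 5000 cells/well, compound dosed then incubated 4-24 h at 37° C, 5% CO2. Nano-Glo substrate added, 0.5 h, luminescence read as non-degraded STAT6. Terfenadine 50 μM (cell kill) defines 100% degradation.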

[1] = system: Eotaxin-3 release in human whole blood stimulated with IL-4; experiment: Human Whole Blood Eotaxin-3 Assay (IL-4 stimulated eotaxin-3 release); type: cell-based; settings: IL-4 stimulation, 48 h, values given for compounds with >80% Emax, geometric mean
Summary of the method: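 Lithium-heparin human whole blood preincubated 2 h at 37° C with 4-fold serially diluted compounds (0.5% DMSO), then stimulated with recombinant human IL-4 ([…]) for 48 h. Eotaxin-3 (CCL26) in supernatant quantified by MSD immunoassay.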

SMILES	DC50 (STAT6) [nM]	EC50 [1] [nM]
CNc1ccn(-c2ccnc3c2cc([C@H](C)N2CCC(c4c(C)cc(C(=O)N5CCC(CN6CCN(Cc7ccc8c(c7)n(C7CC7)c(=O)n8[C@H]7CCC(=O)NC7=O)C[C@@H]6C)CC5)cc4F)CC2)n3C)c(=O)c1 (single isomer, unassigned) [Example 3u198]	1.2	1.6
CNc1ccn(-c2ccnc3c2cc([C@H](C)N2CC=C(c4c(C)cc(C(=O)N5CCn6nc(CN7CCC(c8ccc9c(c8)n(C8CC8)c(=O)n9C8CCC(=O)NC8=O)CC7)cc6C5)cc4F)CC2)n3C)c(=O)c1 (stereo partly drawn) [Example 3u254, 3-(3-cyclopropyl-5-(1-((5-(3-fluoro-5-methyl-4-(1-((S)-1-(1-methyl-4-(4-(methylamino)-2-oxopyridin-1 (2H)-yl)-1H-pyrrolo[2,3-b]pyridin-2-yl)ethyl)-1,2,3,6-tetrahydropyridin-4-yl)benzoyl)-4,5,6,7-tetrahydropyrazolo[1,5-a]pyrazin-2-yl)methyl)piperidin-4-yl)-2-oxo-2,3-dihydro-1H-benzo[d]imidazol-1-yl)piperidine-2,6-dione]	0.4	0.2
CNc1ccn(-c2ccnc3c2cc(CN2CCC(c4c(C)cc(C(=O)N5CCC(CN6CCN(Cc7ccc8c(c7)n(C)c(=O)n8[C@@H]7CCC(=O)NC7=O)CC6)CC5)cc4F)CC2)n3C)c(=O)c1 (single isomer, unassigned) [Example 3u159]	12.8	52.6
CNc1c(F)cn(-c2ccnc3c2cc(CN2CCC(c4c(F)cc(C(=O)N5CCC(CN6CCN(Cc7ccc8c(c7)C7(CC7)C(=O)N8C7CCC(=O)NC7=O)C[C@@H]6C)CC5)cc4F)CC2)n3C)c(=O)c1F (stereo partly drawn) [Example 3u115, 3-(5′-(((S)-4-((1-(4-(1-((4-(3,5-difluoro-4-(methylamino)-2-oxopyridin-1 (2H)-yl)-1-methyl-1H-pyrrolo[2,3-b]pyridin-2-yl)methyl)piperidin-4-yl)-3,5-difluorobenzoyl)piperidin-4-yl)-methyl)-3-methylpiperazin-1-yl)methyl)-2′-oxospiro[cyclopropane-1,3′-indolin]-1′-yl)piperidine-2,6-dione]	8.3	9.1
CNc1ccn(-c2ccnc3c2cc([C@H](C)N2CC=C(c4c(F)cc(C(=O)N5CCC(CN6CCN(Cc7ccc8c(c7)C(C)(C)C(=O)N8C7CCC(=O)NC7=O)C[C@@H]6C)CC5)cc4F)CC2)n3C)c(=O)c1 (stereo partly drawn) [Example 3u201, 3-(5-(((S)-4-((1-(3,5-difluoro-4-(1-((S)-1-(1-methyl-4-(4-(methylamino)-2-oxopyridin-1 (2H)-yl)-1H-pyrrolo[2,3-b]pyridin-2-yl)ethyl)-1,2,3,6-tetrahydropyridin-4-yl)benzoyl)piperidin-4-yl)-methyl)-3-methylpiperazin-1-yl)methyl)-3,3-dimethyl-2-oxoindolin-1-yl)piperidine-2,6-dione]	1.3	3.8
CNc1ccn(-c2ccnc3c2cc([C@H](C)N2CC=C(c4c(F)cc(C(=O)N5CCC(CN6CCN(Cc7ccc8c(c7)C(C)(C)C(=O)N8[C@H]7CCC(=O)NC7=O)C[C@@H]6C)CC5)cc4F)CC2)n3C)c(=O)c1 (single isomer, unassigned) [Example 3u202]	1.9	2.6
CNc1ccn(-c2ccnc3c2cc(CN2CC=C(c4c(C)cc(C(=O)N(C)c5ccc(C6CCN(Cc7ccc8c(c7)C(C)(C)C(=O)N8[C@@H]7CCC(=O)NC7=O)CC6)cc5)cc4F)CC2)n3C)c(=O)c1 (single isomer, unassigned) [Example 3u230]	0.4	2
CNc1cc(=O)n(-c2ccnc3c2cc([C@H](C)N2CC=C(c4c(F)cc(C(=O)N5CCC(CN6CCN(Cc7ccc8c(c7)n(C)c(=O)n8[C@H]7CCC(=O)NC7=O)CC6)CC5)cc4F)CC2)n3C)cc1F (single isomer, unassigned) [Example 3u52]	4.3	1.1
CNc1ccn(-c2ccnc3c2cc(CN2CC=C(c4c(C)cc(C(=O)N5CCC(CN6CCN(Cc7ccc8c(c7)n(C)c(=O)n8[C@H]7CCC(=O)NC7=O)CC6)CC5)cc4F)CC2)n3C)c(=O)c1 (single isomer, unassigned) [Example 3u161]	3.1	1.7
CNc1cc(=O)n(-c2ccnc3c2cc([C@H](C)N2CC=C(c4c(C)cc(C(=O)N(C)c5ccc(N6CCC(Cc7ccc8c(c7)n(C)c(=O)n8C7CCC(=O)NC7=O)CC6)nc5)cc4F)CC2)n3C)cc1F (stereo partly drawn) [Example 3u241, N-(6-(4-((1-(2,6-dioxopiperidin-3-yl)-3-methyl-2-oxo-2,3-dihydro-1H-benzo[d]-imidazol-5-yl)methyl)piperidin-1-yl)pyridin-3-yl)-3-fluoro-4-(1-((S)-1-(4-(5-fluoro-4-(methylamino)-2-oxopyridin-1 (2H)-yl)-1-methyl-1H-pyrrolo[2,3-b]pyridin-2-yl)ethyl)-1,2,3,6-tetrahydropyridin-4-yl)-N,5-dimethylbenzamide]	0.1	0.2
C[C@H]1CN(Cc2cc3c(cc2F)N(C2CCC(=O)NC2=O)C(=O)C3(C)C)CCN1CC1CCN(C(=O)c2cc(F)c(C3=CCN([C@@H](C)c4cc5c(-n6ccc7c(c6=O)CCN7)ccnc5n4C)CC3)c(F)c2)CC1 (stereo partly drawn) [Example 3u200, 3-(5-(((S)-4-((1-(3,5-difluoro-4-(1-((S)-1-(1-methyl-4-(4-oxo-1,2,3,4-tetrahydro-5H-pyrrolo[3,2-c]pyridin-5-yl)-1H-pyrrolo[2,3-b]pyridin-2-yl)ethyl)-1,2,3,6-tetrahydropyridin-4-yl)-benzoyl)piperidin-4-yl)methyl)-3-methylpiperazin-1-yl)methyl)-6-fluoro-3,3-dimethyl-2-oxoindolin-1-yl)piperidine-2,6-dione]	2	9.9
CNc1ccn(-c2ccnc3c2cc([C@H](C)N2CC=C(c4c(C)cc(C(=O)N5CCC(CN6CCN(c7ccc8c(c7)n(C7CC7)c(=O)n8C7CCC(=O)NC7=O)CC6)CC5)cc4F)CC2)n3C)c(=O)c1 (stereo partly drawn) [Example 3u287, 3-(3-cyclopropyl-5-(4-((1-(3-fluoro-5-methyl-4-(1-((S)-1-(1-methyl-4-(4-(methyl-amino)-2-oxopyridin-1 (2H)-yl)-1H-pyrrolo[2,3-b]pyridin-2-yl)ethyl)-1,2,3,6-tetrahydropyridin-4-yl)benzoyl)piperidin-4-yl)methyl)piperazin-1-yl)-2-oxo-2,3-dihydro-1H-benzo[d]imidazol-1-yl)-piperidine-2,6-dione]	2.7	2.9
CNc1cc(=O)n(-c2ccnc3c2cc([C@H](C)N2CC=C(c4c(C)cc(C(=O)N5CCC(CN6CCN(Cc7cc8c(cc7F)N(C7CCC(=O)NC7=O)C(=O)C87CC7)CC6)CC5)cc4F)CC2)n3C)cc1F (stereo partly drawn) [Example 3u152, 3-(6′-fluoro-5′-((4-((1-(3-fluoro-4-(1-((S)-1-(4-(5-fluoro-4-(methylamino)-2-oxopyridin-1 (2H)-yl)-1-methyl-1H-pyrrolo[2,3-b]pyridin-2-yl)ethyl)-1,2,3,6-tetrahydropyridin-4-yl)-5-methylbenzoyl)piperidin-4-yl)methyl)piperazin-1-yl)methyl)-2′-oxospiro[cyclopropane-1,3′-indolin]-1′-yl)piperidine-2,6-dione]	6.6	13.2
CNc1cc(=O)n(-c2ccnc3c2cc([C@H](C)N2CCC(c4ccc(C(=O)N5CCC(CN6CCN(Cc7ccc8c(c7)C7(CC7)C(=O)N8[C@H]7CCC(=O)NC7=O)C[C@@H]6C)CC5)cc4)CC2)n3C)cc1F (single isomer, unassigned) [Example 3u37]	0.5	1.7
